Test results: ChEMBL document CHEMBL3351629, “Modulators of the nuclear receptor retinoic acid receptor-related orphan receptor-γ (RORγ or RORc)” (J Med Chem, 2014)
One block for each molecule: values may come before it.

Key:
[1] = target: T1, Nuclear receptor ROR-gamma (Homo sapiens, UniProt P51449); test: Agonist activity at RoRc-LBD (unknown origin) expressed in HEK293 cells assessed as transcriptional activity by GAL4 reporter assay; type: functional, cell-based
T1 sequence (P51449 whole entry): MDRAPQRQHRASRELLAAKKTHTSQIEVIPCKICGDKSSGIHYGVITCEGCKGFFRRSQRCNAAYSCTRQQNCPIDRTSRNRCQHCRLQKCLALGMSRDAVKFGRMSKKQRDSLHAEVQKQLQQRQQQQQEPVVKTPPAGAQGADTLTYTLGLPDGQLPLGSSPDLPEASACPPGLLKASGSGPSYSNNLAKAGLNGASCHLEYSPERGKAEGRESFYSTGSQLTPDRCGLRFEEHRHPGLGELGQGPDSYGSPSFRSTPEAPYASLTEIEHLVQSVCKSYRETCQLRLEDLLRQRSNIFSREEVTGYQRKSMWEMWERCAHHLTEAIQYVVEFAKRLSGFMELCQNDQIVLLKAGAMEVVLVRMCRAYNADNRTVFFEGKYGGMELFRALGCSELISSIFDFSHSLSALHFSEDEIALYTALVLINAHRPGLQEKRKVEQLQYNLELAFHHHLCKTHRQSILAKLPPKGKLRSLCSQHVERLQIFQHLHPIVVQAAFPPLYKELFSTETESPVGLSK

[2] = target: T2, Nuclear receptor ROR-gamma (Mus musculus) (UniProt P51450); test: Activity at RoRc in mouse CD4+ T cells assessed as inhibition of IL-17 production at 10 uM; type: cell-based; conditions: T-cell
T2 sequence (whole entry): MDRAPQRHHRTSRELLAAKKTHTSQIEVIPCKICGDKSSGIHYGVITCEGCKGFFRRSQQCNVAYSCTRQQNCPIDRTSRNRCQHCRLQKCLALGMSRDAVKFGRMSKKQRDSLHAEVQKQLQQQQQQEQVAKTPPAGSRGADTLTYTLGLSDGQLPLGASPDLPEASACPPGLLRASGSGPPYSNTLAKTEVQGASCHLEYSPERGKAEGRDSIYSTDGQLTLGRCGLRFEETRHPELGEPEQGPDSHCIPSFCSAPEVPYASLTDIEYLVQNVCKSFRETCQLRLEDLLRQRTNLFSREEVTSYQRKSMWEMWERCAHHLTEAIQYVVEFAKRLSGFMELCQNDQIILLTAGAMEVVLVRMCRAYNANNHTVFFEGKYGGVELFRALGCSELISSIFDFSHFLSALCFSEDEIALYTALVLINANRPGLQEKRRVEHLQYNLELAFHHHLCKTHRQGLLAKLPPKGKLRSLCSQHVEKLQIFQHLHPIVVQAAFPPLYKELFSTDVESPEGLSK

[3] = target: T1, Nuclear receptor ROR-gamma; test: Inverse agonist activity at human RoRc-LBD expressed in cells assessed as SRC1 to 2 coactivator peptide recruitment; type: functional, cell-based
[4] = target: T1, Nuclear receptor ROR-gamma; test: Inverse agonist activity at human RoRc-LBD fusion protein with GST expressed in […] cells assessed as SRC1 coactivator peptide recruitment; type: functional, cell-based
[5] = target: T1, Nuclear receptor ROR-gamma; test: Agonist activity at human RoRc-LBD expressed in CHO cells assessed as transcriptional activity by GAL4 reporter assay; type: functional, cell-based
[6] = target: T1, Nuclear receptor ROR-gamma; test: Inverse agonist activity at human RoRc in human skin model assessed as suppression of IL-17F level relative to control; type: functional
[7] = target: T1, Nuclear receptor ROR-gamma; test: (§1) Inverse agonist activity at human RoRc in human skin model assessed as suppression of IL-17A level relative to control; type: functional
[8] = target: T3, Nuclear receptor ROR-gamma (Homo sapiens) (UniProt P51449); test: Inverse agonist activity at human RoRc in human skin model assessed as suppression of IL-22 level relative to control; conditions: concentration not given here
T3 sequence (whole entry): T1 sequence (P51449 whole entry)

[9] = target: T3, Nuclear receptor ROR-gamma (Homo sapiens); test: as §1; type: functional; conditions: concentration not given here
[10] = target: T1, Nuclear receptor ROR-gamma; test: Agonist activity at human RoRc-LBD in human PBMC cells assessed as inhibition of IL-17A production by luciferase assay; type: functional, cell-based
[11] = target: T4, Nuclear receptor ROR-gamma (Mus musculus, UniProt P51450); test: Activity at RoRc in mouse CD4+ T cells assessed as inhibition of IL-17 production; type: cell-based, T-cell
T4 sequence (P51450 whole entry): T2 sequence (whole entry)

[12] = target: T1, Nuclear receptor ROR-gamma; test: Inverse agonist activity at human RoRc-LBD expressed in cells assessed as TRAP-220 coactivator peptide recruitment; type: functional, cell-based
[13] = target: T1, Nuclear receptor ROR-gamma; test: Inhibition of RORc (unknown origin) assessed as inhibition of fluorescein-D22 recruitment by TR-FRET assay; type: functional
[14] = target: T3, Nuclear receptor ROR-gamma (Homo sapiens); test: Agonist activity at human RoRc-LBD expressed in Jurkat cells assessed as production of IL-17 at 3 uM by luciferase assay in absence of anti-CD3 relative to basal activity; type: cell-based
[15] = target: T1, Nuclear receptor ROR-gamma; test: Agonist activity at RoRc-LBD (unknown origin) expressed in Drosophilla S2 cells assessed as transcriptional activity by GAL4 reporter assay; type: functional, cell-based

Structure (SMILES): Cc1c(C(=O)N2CC3(CCS(=O)(=O)CC3)C2)cc(-c2ccc(S(=O)(=O)NC(C)(C)C)c3ccccc23)n1CC1CCCCC1
- EC50 [1]: 16 nM

Structure (SMILES): CC(C)(C)n1ncc(-c2nc(CC(=O)NCC3CCOCC3)cs2)c1-c1cc2ccccc2s1
- inhibition [2]: 98%

Structure (SMILES): Cc1cc(Cl)ccc1C(NC(=O)Cc1ccc(OCc2c(C)noc2C)cc1)c1ccc(Cl)cc1 (stereo not given)
- IC50 [3]: 1 nM

Structure (SMILES): Cc1ccc(C(NC(=O)Cc2ccc(N(CC(=O)O)Cc3c(C)noc3C)cc2)c2ccccc2)cc1 (stereo not given)
- IC50 [3]: 1 nM

Structure (SMILES): COc1ccccc1S(=O)(=O)N1Cc2ccccc2COCC1Cc1ccccc1 (stereo not given)
- EC50 [4]: < 500 nM

Structure (SMILES): Cc1ccc(NC(=O)C[C@H](CCC(=O)O)c2nnn([C@H]3C[C@@H](CC(C)(C)C)C3)c2C(F)(F)F)c(C)c1
- EC50 [5]: 53 nM

Structure (SMILES): CCS(=O)(=O)c1ccc(CC(=O)Nc2nc(-c3cc(Cl)ccc3Cl)cs2)cc1
- EC50 [4]: 1000 nM

Structure (SMILES): Cc1ccc([C@@H](NC(=O)Cc2ccc3oc(C(c4ccncc4)N4CC(N)C4)cc3c2)c2ccccc2)c(C)c1 (stereo not given in full)
- IC50 [3]: 1 nM

Structure (SMILES): C/C(=C\c1ccc(C(=O)O)cc1)c1ccc2c(c1)C(C)(C)CCC2(C)C
- EC50 [4]: 9000 nM

Structure (SMILES): Cc1ccc(NC(=O)C[C@H](CCC(=O)O)c2noc([C@H]3C[C@@H](CC(C)(C)C)C3)c2C2CC2)c(Cl)c1
- EC50 [5]: 2300 nM

Structure (SMILES): CCc1ccc(N(CC(C)C)S(=O)(=O)c2ccc(C(O)CN3CCOCC3)c(CO)c2)cc1 (stereo not given)
- EC50 [4]: 32 nM
- inhibition [8]: 60%
- inhibition [9]: 83%

Structure (SMILES): CCS(=O)(=O)c1ccc(CC(=O)Nc2ccc(-n3ccc(C)n3)c(Oc3cccc(OC(F)(F)F)c3)c2)cc1
- EC50 [13]: < 50 nM

Structure (SMILES): Cc1noc(C)c1COc1ccc(S(=O)(=O)N(CC(C)C)c2ccc(Cl)cc2)cc1
- EC50 [3]: < 16 nM
- EC50 [10]: < 1000 nM

Structure (SMILES): CCC(=O)Nc1ccc2nn(-c3ccc(CC)cc3)nc2c1
- Activity [14]: 220%

Structure (SMILES): Cc1cnc(C(CCC(C)C)NC(=O)Cc2ccc3oc(C(O)c4c(C)noc4C)cc3c2)c(C)c1 (stereo not given)
- IC50 [3]: 1 nM

Structure (SMILES): O=C(O)c1ccc(-c2nn(C(=O)c3c(Cl)cccc3C(F)(F)F)c3cccnc23)c(F)c1
- EC50 [4]: < 50 nM

Structure (SMILES): COC(=O)[C@H]1CC[C@]2(O)[C@@H]3CC[C@@H]4C[C@@H](O[C@H]5C[C@H](O)[C@H](O[C@H]6C[C@H](O)[C@H](O[C@H]7C[C@H](O)[C@H](O)[C@@H](C)O7)[C@@H](C)O6)[C@@H](C)O5)CC[C@]4(C)[C@H]3C[C@@H](O)[C@]12C
- EC50 [15]: 1000 nM

Second part, the molecule after the results:

- inhibition [2]: 96%
Structure (SMILES): CCn1c2ccccc2c2cc(NC(=O)CC(C)(O)CCOc3ccc(C#N)c(Cl)c3)ccc21 (stereo not given)

- EC50 [4]: < 500 nM
- EC50 [1]: < 500 nM
Structure (SMILES): Cc1c(S(N)(=O)=O)cc(-c2cn(S(=O)(=O)N3CCCCC3)c3ccccc23)n1CC1CCCCC1

- EC50 [6]: < 10000 nM
- EC50 [7]: < 10000 nM
Structure (SMILES): NC(=O)c1ccc2c(c1)CCN2Cc1ccc(C(O)(C(F)(F)F)C(F)(F)F)cc1

- IC50 [3]: < 16 nM
- EC50 [10]: 316 nM
Structure (SMILES): Cc1ccc(N(CC(C)C)S(=O)(=O)c2ccc(OCc3ccncc3)cc2)c(C)c1

- EC50 [11]: < 100 nM
- EC50 [12]: < 100 nM
Structure (SMILES): CN(C(=O)c1c(F)cccc1Cl)c1ccc(-c2cc(C(N)=O)ccc2Cl)cc1O[C@@H]1C[C@@H]2C[C@@H]2C1

- EC50 [6]: < 10000 nM
- EC50 [7]: < 10000 nM
Structure (SMILES): OC(c1ccc(CN2CCCc3cc(-c4cn[nH]c4)ccc32)cc1)(C(F)(F)F)C(F)(F)F

- EC50 [11]: 9 nM
Structure (SMILES): CCS(=O)(=O)c1ccc(CC(=O)Nc2ccc3c(ccn3CCc3ccc(Cl)cc3Cl)c2)cc1

- IC50 [3]: < 15000 nM
- IC50 [1]: 15000 nM
Structure (SMILES): O=C(Nc1ccc2cnn(S(=O)(=O)c3cccc(C(F)(F)F)c3)c2c1)c1c(F)cccc1C(F)(F)F

- IC50 [3]: 33 nM
Structure (SMILES): Cc1ccc(C(NC(=O)Cc2ccc3oc(C(O)c4c(C)noc4C)cc3c2)c2ccccc2)c(C)c1 (stereo not given)
